What was measured:
[1] = system: MCF7 / ADR / RES; assay: NCI in vitro 60 human tumor cell line assay; type: cell-based; conditions: MCF7 / ADR / RES, BREAST CANCER, 48h, read-out: Total Growth Inhibition (TGI)
Procedure: (§1) Each test compound was screened against a battery of 60 human cell lines obtained from eight organs. In a typical procedure, the cell suspensions that were diluted according to the particular cell type and the expected target cell density (5000-40,000 cells per well based on cell growth characteristics) were added into 96-well microtiter plates. Inoculates were allowed a preincubation period of 24h at 37°C. for stabilization. Dilutions at twice the intended test concentrations were added at time zero in 100-µl aliquots to microtiter plate wells. Usually test compounds were evaluated at five 10-fold dilutions. The highest well concentration used in the test is 10^-4M. The cells are then incubated in the presence of drug (the test compound) for further 48h in 5% CO2 atmosphere and 100% humidity. At the end of this time, the adherent cells are fixed to the plate by means of trichloroacetic acid, and after a number of washes, the cell layer is treated with the protein stain Sulforhodamine B. The optical density which is proportional to protein mass, is then read by automated spectrophotometric plate readers at a wavelength of 515 nm. Readings are transferred to a microcomputer and final reports are generated using especially developed software.

[2] = system: ACHN; assay: NCI in vitro 60 human tumor cell line assay; type: cell-based; conditions: RENAL CANCER, 48h, read-out: Total Growth Inhibition (TGI)
Procedure: as §1

[3] = system: OVCAR 8; assay: NCI in vitro 60 human tumor cell line assay; type: cell-based; conditions: OVCAR 8, OVARIAN, 48h, read-out: Total Growth Inhibition (TGI)
Procedure: (§2) Each test compound was screened against a battery of 60 human cell lines obtained from eight organs. In a typical procedure, the cell suspensions that were diluted according to the particular cell type and the expected target cell density (5000-40,000 cells per well based on cell growth characteristics) were added into 96-well microtiter plates. Inoculates were allowed a preincubation period of 24h at 37°C. for stabilization. Dilutions at twice the intended test concentrations were added at time zero in 100-µl aliquots to microtiter plate wells. Usually test compounds were evaluated at five 10-fold dilutions. The highest well concentration used in the test is 10^-4M. The cells are then incubated in the presence of drug (the test compound) for further 48h in 5% CO2 atmosphere and 100% humidity. At the end of this time, the adherent cells are fixed to the plate by means of trichloroacetic acid, and after a number of washes, the cell layer is treated with the protein stain Sulforhodamine B. The optical density which is proportional to protein mass, is then read by automated spectrophotometric plate readers at a wavelength of 515 nm.

[4] = system: UO 31; assay: NCI in vitro 60 human tumor cell line assay; type: cell-based; conditions: UO 31, RENAL, 48h, read-out: Total Growth Inhibition (TGI)
Procedure: as §1

[5] = system: SK OV3; assay: NCI in vitro 60 human tumor cell line assay; type: cell-based; conditions: SK-OV-3, SK OV3, OVARIAN, 48h, read-out: Total Growth Inhibition (TGI)
Procedure: as §2

[6] = system: U 251; assay: NCI in vitro 60 human tumor cell line assay; type: cell-based; conditions: U 251, CNS, 48h, read-out: Total Growth Inhibition (TGI)
Procedure: as §1

[7] = system: MCF 7/ ADR; assay: NCI in vitro 60 human tumor cell line assay; type: cell-based; conditions: MCF 7/ ADR, BREAST, 48h
Procedure: as §1

[8] = system: BT 549; assay: NCI in vitro 60 human tumor cell line assay; type: cell-based; conditions: BT 549, BREAST, 48h, read-out: Total Growth Inhibition (TGI)
Procedure: as §1

[9] = system: H 522; assay: NCI in vitro 60 human tumor cell line assay; type: cell-based; conditions: NCI-H522, H 522, NSLC, 48h, read-out: Total Growth Inhibition (TGI)
Procedure: as §1

[10] = system: SF 268; assay: NCI in vitro 60 human tumor cell line assay; type: cell-based; conditions: SF-268, 48 h, read-out: Total Growth Inhibition (TGI)
Procedure: as §2

[11] = system: H 23; assay: NCI in vitro 60 human tumor cell line assay; type: cell-based; conditions: NCI-H23, H 23, NSLC, 48h, read-out: Total Growth Inhibition (TGI)
Procedure: as §1

[12] = system: HCC 2998; assay: NCI in vitro 60 human tumor cell line assay; type: cell-based; conditions: HCC 2998, COLON CANCER, 48h
Procedure: as §1

[13] = system: HOP 92; assay: NCI in vitro 60 human tumor cell line assay; type: cell-based; conditions: HOP 92, NSLC, 48h, read-out: Total Growth Inhibition (TGI)
[14] = system: H 322M; assay: NCI in vitro 60 human tumor cell line assay; type: cell-based; conditions: NCI-H322M, H 322M, NSLC, 48h, read-out: Total Growth Inhibition (TGI)
Procedure: as §1

[15] = system: CAKI; assay: NCI in vitro 60 human tumor cell line assay; type: cell-based; conditions: CAKI, RENAL CANCER, 48h, read-out: Total Growth Inhibition (TGI)
Procedure: as §1

[16] = system: KM 12; assay: NCI in vitro 60 human tumor cell line assay; type: cell-based; conditions: KM12, KM 12, COLON CANCER, 48h, read-out: Total Growth Inhibition (TGI)
Procedure: as §1

[17] = system: H 226; assay: NCI in vitro 60 human tumor cell line assay; type: cell-based; conditions: NCI-H226, H 226, NSLC, 48h, read-out: Total Growth Inhibition (TGI)
Procedure: as §1

[18] = system: SF 295; assay: NCI in vitro 60 human tumor cell line assay; type: cell-based; conditions: SF 295, CNS, 48h, read-out: Total Growth Inhibition (TGI)
Procedure: as §1

[19] = system: RXF 393; assay: NCI in vitro 60 human tumor cell line assay; type: cell-based; conditions: RXF 393, RENAL CANCER, 48h, read-out: Total Growth Inhibition (TGI)
Procedure: as §1

[20] = system: EKVX; assay: NCI in vitro 60 human tumor cell line assay; type: cell-based; conditions: NSLC, 48h, read-out: Total Growth Inhibition (TGI)
Procedure: as §1

[21] = system: HCT 15; assay: NCI in vitro 60 human tumor cell line assay; type: cell-based; conditions: HCT 15, COLON CANCER, 48h, read-out: Total Growth Inhibition (TGI)
Procedure: as §1

[22] = system: H 460; assay: NCI in vitro 60 human tumor cell line assay; type: cell-based; conditions: H 460, NSLC, 48h
Procedure: as §1

[23] = system: MOLT 4; assay: NCI in vitro 60 human tumor cell line assay; type: cell-based; conditions: MOLT 4, […], 48h, read-out: Total Growth Inhibition (TGI)
Procedure: as §1

[24] = system: HCT 116; assay: NCI in vitro 60 human tumor cell line assay; type: cell-based; conditions: HCT 116, COLON CANCER, 48h, read-out: Total Growth Inhibition (TGI)
[25] = NCI in vitro 60 human tumor cell line assay; type: cell-based; conditions: HCT 166, COLON CANCER, 48h, read-out: Total Growth Inhibition (TGI)
Procedure: as §1

[26] = system: SN12C; assay: NCI in vitro 60 human tumor cell line assay; type: cell-based; conditions: RENAL CANCER, 48h, read-out: Total Growth Inhibition (TGI)
Procedure: as §1

[27] = system: 786-O; assay: NCI in vitro 60 human tumor cell line assay; type: cell-based; conditions: 786-0, 786-O, RENAL CANCER, 48h, read-out: Total Growth Inhibition (TGI)
Procedure: as §2

[28] = system: COLO 205; assay: NCI in vitro 60 human tumor cell line assay; type: cell-based; conditions: COLO 205, COLON CANCER, 48h, read-out: Total Growth Inhibition (TGI)
Procedure: as §1

[29] = system: T 47D; assay: NCI in vitro 60 human tumor cell line assay; type: cell-based; conditions: T47D, T 47D, BREAST, 48h, read-out: Total Growth Inhibition (TGI)
Procedure: as §1

[30] = system: MCF 7; assay: NCI in vitro 60 human tumor cell line assay; type: cell-based; conditions: MCF7, MCF 7, BREAST, 48h, read-out: Total Growth Inhibition (TGI)
Procedure: as §1

[31] = system: HT 29; assay: NCI in vitro 60 human tumor cell line assay; type: cell-based
Procedure: as §1

[32] = system: MDA-MB-435; assay: NCI in vitro 60 human tumor cell line assay; type: cell-based; conditions: MDA-MB-435, BREAST, 48h, read-out: Total Growth Inhibition (TGI)
[33] = system: A 498; assay: NCI in vitro 60 human tumor cell line assay; type: cell-based; conditions: A498, A 498, RENAL CANCER, 48h, read-out: Total Growth Inhibition (TGI)
Procedure: as §1

[34] = system: HOP 62; assay: NCI in vitro 60 human tumor cell line assay; type: cell-based; conditions: HOP 62, NSLC, 48h, read-out: Total Growth Inhibition (TGI)
[35] = compared with 20(RS)-camptothecin of the formula 8; cited from earlier work
[36] = biological target: topoisomerase I (Homo sapiens, UniProt P11387); conditions: result in words; cited from earlier work
Sequence of topoisomerase I (P11387 whole entry): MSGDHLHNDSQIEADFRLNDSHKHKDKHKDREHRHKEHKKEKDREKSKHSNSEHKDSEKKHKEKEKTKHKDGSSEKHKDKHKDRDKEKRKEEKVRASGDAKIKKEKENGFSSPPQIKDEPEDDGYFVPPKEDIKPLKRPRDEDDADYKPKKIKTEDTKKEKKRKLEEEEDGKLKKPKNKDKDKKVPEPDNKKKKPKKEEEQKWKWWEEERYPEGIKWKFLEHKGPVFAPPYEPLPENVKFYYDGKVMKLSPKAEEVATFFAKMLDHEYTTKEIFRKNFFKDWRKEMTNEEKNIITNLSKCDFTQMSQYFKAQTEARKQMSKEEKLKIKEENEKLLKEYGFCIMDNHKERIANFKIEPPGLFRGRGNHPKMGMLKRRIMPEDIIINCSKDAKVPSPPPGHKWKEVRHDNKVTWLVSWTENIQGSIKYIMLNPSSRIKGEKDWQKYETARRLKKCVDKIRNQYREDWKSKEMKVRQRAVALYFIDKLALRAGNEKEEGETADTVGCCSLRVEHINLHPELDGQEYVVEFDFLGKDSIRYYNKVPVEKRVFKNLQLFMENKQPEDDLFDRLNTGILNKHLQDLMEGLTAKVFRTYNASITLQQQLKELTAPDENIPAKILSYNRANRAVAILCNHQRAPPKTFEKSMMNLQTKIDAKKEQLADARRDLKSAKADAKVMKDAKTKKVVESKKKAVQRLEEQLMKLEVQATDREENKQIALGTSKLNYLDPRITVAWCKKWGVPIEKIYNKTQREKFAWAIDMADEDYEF

**Q.** With `CC[C@@]1(O)C(=O)OCc2c1cc1n(c2=O)Cc2cc3c(CN(C)C)c(O)ccc3nc2-1` [TOPOTECAN, topotecan, reference compound] as the compound, how does the IC (TGI) [1] read?
**A.** 1500 nM

**Q.** And the IC (TGI) [2]?
**A.** 280 nM

**Q.** What about the IC (TGI) [3] of the same compound?
**A.** 18200 nM

**Q.** And the IC (TGI) [4]?
**A.** 2510 nM

**Q.** What about the IC (TGI) [5] of the same compound?
**A.** 5120 nM

**Q.** What about the IC (TGI) [6] of the same compound?
**A.** 2810 nM

**Q.** And the IC (TGI) ([7]; Homo sapiens, NCI/ADR-RES, read-out: Total Growth Inhibition (TGI))?
**A.** 1500 nM

**Q.** What about the “Total Growth Inhibition (TGI)” value [7] of the same compound?
**A.** 1.5 μm

**Q.** And the IC (TGI) [8]?
**A.** > 100000 nM

**Q.** And the IC (TGI) [9]?
**A.** 4160 nM

**Q.** What about the IC (TGI) [10] of the same compound?
**A.** 56000 nM

**Q.** What about the IC (TGI) [11] of the same compound?
**A.** 870 nM

**Q.** And the “Total Growth Inhibition (TGI)” value [12]?
**A.** 15.80 μm

**Q.** What about the IC (TGI) ([12]; Homo sapiens, read-out: Total Growth Inhibition (TGI)) of the same compound?
**A.** 15800 nM

**Q.** What about the IC (TGI) [13] of the same compound?
**A.** 7900 nM

**Q.** And the IC (TGI) [14]?
**A.** 16900 nM

**Q.** What about the IC (TGI) [15] of the same compound?
**A.** 510 nM

**Q.** And the IC (TGI) [16]?
**A.** 6450 nM

**Q.** What about the IC (TGI) [17] of the same compound?
**A.** 11000 nM

**Q.** And the IC (TGI) [18]?
**A.** 2180 nM

**Q.** What about the IC (TGI) [19] of the same compound?
**A.** 1410 nM

**Q.** And the IC (TGI) [20]?
**A.** 100000 nM

**Q.** And the IC (TGI) [21]?
**A.** 44600 nM

**Q.** And the “Total Growth Inhibition (TGI)” value [22]?
**A.** 1.20 μm

**Q.** And the IC (TGI) ([22]; Homo sapiens, NCI-H460, read-out: Total Growth Inhibition (TGI))?
**A.** 1200 nM

**Q.** What about the IC (TGI) [23] of the same compound?
**A.** 1200 nM

**Q.** And the IC (TGI) [24]?
**A.** 2510 nM

**Q.** And the IC (TGI) [25]?
**A.** 2510 nM

**Q.** What about the IC (TGI) [26] of the same compound?
**A.** 1580 nM

**Q.** What about the IC (TGI) [27] of the same compound?
**A.** 120 nM

**Q.** What about the IC (TGI) [28] of the same compound?
**A.** 7940 nM

**Q.** What about the IC (TGI) [29] of the same compound?
**A.** 1800 nM

**Q.** And the IC (TGI) [30]?
**A.** 100000 nM

**Q.** And the “Total Growth Inhibition (TGI)” value [31]?
**A.** 100 μm

**Q.** What about the IC (TGI) ([31]; Homo sapiens, HT-29, 48 h, read-out: Total Growth Inhibition (TGI)) of the same compound?
**A.** > 100000 nM

**Q.** And the IC (TGI) [32]?
**A.** 2500 nM

**Q.** What about the IC (TGI) [33] of the same compound?
**A.** 1690 nM

**Q.** And the IC (TGI) [34]?
**A.** 40 nM

**Q.** With `CCc1c2c(nc3ccc(OC)cc13)-c1cc3c(c(=O)n1C2)COC(=O)[C@]3(N)CC` [formula 7, 7-ethyl-10-methoxycamptothecin derivative] as the compound, how does the “in vivo antitumor activity” value [35] read?
**A.** increased in vivo antitumor activity

**Q.** Which “inhibition of topoisomerase I activity” value [36] does the source give for `C=C1C(=O)OCc2c1cc1n(c2=O)Cc2c-1nc1ccc(O)cc1c2CC` [formula 9, 18-noranhydrocamptothecin analogue] here?
**A.** potent camptothecin like inhibition of topoisomerase I activity

Source: patent publication EP0847397B1, “WATER-SOLUBLE C-RING ANALOGUES OF 20 (S)-CAMPTOTHECIN” (DR. REDDY'S RESEARCH FOUNDATION, priority 1996, dated 1997)
